Laboratory results reported in US20250381277A1, “COMPOSITIONS AND METHODS FOR TREATMENT OF NEUROLOGICAL DISORDERS” (Dana-Farber Cancer Institute, Inc., priority 2022, published 2025).
Entries after “also recorded” stand apart in the source; their conditions may differ.

Columns and labels:
5XFAD mice = test: Weekly intravenous or intranasal cyclic RGD (Cilengitide) administration to 5XFAD mice: microglial proinflammatory responses; assay type: in vivo, mouse; settings: vs saline
Procedure: (A) Schematic outline of cyclic RGD (Cilengitide) administration. Weekly intravenous injection (25 mg/kg) or intranasal delivery (10 mg/kg) of Cilengitide or vehicle control (saline) into 5XFAD mice starting at 6-mo of age for 1 or 2 months. Microglial proinflammatory responses were analyzed after 1-mo or 2-mo treatment. […] IV injection of Cilengitide for 1 month reduced the percentage of CD11c^+ microglia by 50% and decreased CD11c^+ microglial TNF-α production by ˜50% in 5XFAD mice (n=3). […]. […] IV injection of Cilengitide for 2 months reduced the percentage of CD11c+ microglia by 60% and decreased CD11c+ microglial TNF-α production by 55% in 5XFAD mice compared with vehicle (saline) treated control mice (n=3). *p<0.05, **p<0.01, ***p<0.001.
Weekly administration of cyclic RGD (Cilengitide) was given intravenously or intranasally to 6-mo old mice, continuing for 1 or 2 months. Microglial proinflammatory responses and Aβ plaque pathology were analyzed after 1-mo or 2-mo of treatment (FIG. 43A).

[1] = system: CD11c^+ microglia of 9-mo old 5XFAD and OPN-KO.5XFAD mice; test: In vitro analysis of OPN-dependent inhibition of TREM2-lysosomal phagocytic pathway and Aβ degradation; assay type: cell-based, mouse; settings: rmOPN 12.5 μg/ml, anti-OPN Ab 10 μg/ml
Procedure: (a) Protocol of in vitro analysis of OPN-dependent inhibition of TREM2-lysosomal phagocytic pathway in 9-mo old 5XFAD and OPN-KO.5XFAD mice. […] (d) The MFI of FAM-Aβ 1-42 after 1 h's incubation was determined by flow cytometry in lysosomes of CD11c^+ microglia (CD11c^+CD68^+) and defined as Aβ MFI1h. MFI of retained FAM-Aβ in lysosomes of CD11c^+ microglia (CD11c^+CD68^+) 24 h after FAM-Aβ1-42 withdrawal was determined and defined as Aβ MFI24h. […] All data are presented as mean±s.e.m.
To test the impact of OPN on TREM2-lysosome activation and AR degradation, microglia enriched by anti-CD11b microbeads (purity >95%, Miltenyi) from 9-mo old 5XFAD and OPN-KO.5XFAD mice were seeded into 12-well plates at 3×10^5 cells/well in conventional microglia culture medium (DMEM-F12 with 10% fetal bovine serum+10% penicillin/streptomycin+10 ng/ml recombinant mouse M-CSF). Microglia were then pre-incubated with anti-OPN Ab (10 μg/ml) for 1 h followed by the incubation with rmOPN ([…]) overnight. Then FAM-labeled Aβ1-42 peptide (1 μM) was added into culture for 1 h. Mean fluorescence intensity (MFI) of FAM-Aβ1-42 in lysosomes of CD11c^+ microglia (CD11c^+CD68^+) after 1 h's incubation was determined by flow cytometry and defined as Aβ MFI1h. FAM-Aβ1-42 was then withdrawn, and cells were cultured for 24 h in the presence or absence with anti-OPN Ab (10 μg/ml) and/or rmOPN (12.5 μg/ml) before analysis of CD11c^+ microglial expression of TREM2, CD68 and MFI of retained FAM-Aβ1-42 in CD11c^+CD68^+ microglia (defined as Aβ MFI24h) by flow cytometry. Aβ degradation rate was calculated as (Aβ MFI1h−Aβ MFI24h)/Aβ MFI1h.

[2] = intranasal 10 mg/kg weekly, 1 month
[3] = intranasal 10 mg/kg weekly, 2 months

| Compound | decrease of CD11c^+ microglial TNF-α production (5XFAD mice; IV 25 mg/kg weekly, 1 month) [%] | reduction of percentage of CD11c^+ microglia (5XFAD mice; IV 25 mg/kg weekly, 1 month) [%] | decrease of CD11c+ microglial TNF-α production (5XFAD mice; IV 25 mg/kg weekly, 2 months) [%] | reduction of percentage of CD11c+ microglia (5XFAD mice; IV 25 mg/kg weekly, 2 months) [%] | CD11c^+ microglia (in words) (5XFAD mice; [2]) | reduction of TNF-α production by CD11c^+ microglia (5XFAD mice; [2]) [%] | decrease of percentage of CD11c+ microglia (5XFAD mice; [3]) [%] | reduction of TNF-α expression by CD11c+ microglia (5XFAD mice; [3]) [%] | Aβ degradation rate [(Aβ MFI1h−Aβ MFI24h)/Aβ MFI1h] in lysosomes of CD11c^+ microglia ([1]; FAM-Aβ1-42 1 μM) | CD68 expression in CD11c^+ microglia ([1]; OPN-KO.5XFAD microglia) | TREM2 expression in CD11c^+ microglia ([1]; OPN-KO.5XFAD microglia) |
| --- | --- | --- | --- | --- | --- | --- | --- | --- | --- | --- | --- |
| CC(C)[C@H]1C(=O)N[C@@H](CCCN=C(N)N)C(=O)NCC(=O)N[C@@H](CC(=O)O)C(=O)N[C@H](Cc2ccccc2)C(=O)N1C [Cilengitide] | ~50 | 50 | 55 | 60 | decrease; also recorded: decreased tendency | ~35 | 35 | ~45 |  |  |  |
| rmOPN: recombinant mouse OPN (osteopontin) |  |  |  |  |  |  |  |  | substantial reduction of Aβ degradation; also recorded: significantly reduced the Aβ degradation rate | reduced expression of CD68; also recorded: significantly reduced | sharply inhibited; also recorded: sharply reduced |
